We go through 25 molecules from ChEMBL document CHEMBL3286216, “Synthesis and biological evaluation of CHX-DAPYs as HIV-1 non-nucleoside reverse transcriptase inhibitors” (Bioorg Med Chem, 2014).

Data set [1] can be described thus: Selectivity index, ratio CC50 for human MT4 cells to EC50 for HIV 1 3B.
Data set [2] deals with Human immunodeficiency virus 1. The experiment in a line: Antiviral activity against HIV1 RES056 harboring RT K103N,Y181C double mutant infected in human MT4 cells assessed as inhibition of virus-induced cytopathicity measured 5 days post viral infection by MTT assay. Type of data set: functional, organism-based. Particulars: Human immunodeficiency virus 1, RES056, MT4, 120 h. On the technique in general: Protection from cytopathic effect is a common read-out in antiviral testing.

For data set [3], the system named is Human immunodeficiency virus 2. As to the kind of experiment: Antiviral activity against HIV2 ROD infected in human MT4 cells assessed as inhibition of virus-induced cytopathicity measured 5 days post viral infection by MTT assay. Type of data set: functional, organism-based. Particulars: Human immunodeficiency virus 2, ISOLATE ROD, MT4, 120 h.
Data set [4] in a line: Cytotoxicity against human MT4 cells by MTT assay. The class given is cell-based. For orientation: Formazan colour is commonly taken as a measure of viable cells.
The test system of data set [5] is Human immunodeficiency virus 1. The experiment in a line: Antiviral activity against HIV1 3B infected in human MT4 cells assessed as inhibition of virus-induced cytopathicity measured 5 days post viral infection by MTT assay. The class given is functional, organism-based. The conditions noted are these: Human immunodeficiency virus 1, 3B, MT4, 120 h.

pEC50: −log10 of the molar value. A value given as a limit tells only on which side of the number the result lay.

A word on the pEC50: it is the EC50 on a negative log10 scale, so that one unit is a factor of ten. Broadly, the CC50 is the concentration that lowers cell viability or growth by half. A high value points to lower toxicity to the cells. On to `N#Cc1ccc(Nc2nccc(C(Cl)c3ccccc3)n2)cc1` (stereo not given), for which the selectivity ratio in data set [1] (MT4 cells) came out at 2340. The pEC50 was < 4.42 in data set [2], < 4.42 in data set [3] and 7.80 in data set [5]. In addition, the CC50 in data set [4] is 37.8 µM.

Take `Cc1ccc(C(Cl)c2ccnc(Nc3ccc(C#N)cc3)n2)cc1` (stereo not given): the selectivity ratio in data set [1] (MT4 cells) was determined as 713. The values for the pEC50 in data set [2], in data set [3] and in data set [5] were < 4.30, < 4.30 and 7.16, respectively. In data set [4], this molecule came in with a CC50 of 49.7 µM.

As for `COc1ccc(C(Cl)c2ccnc(Nc3ccc(C#N)cc3)n2)cc1` (stereo not given), the pEC50 in data set [2] was < 4.47; in data set [3] it was < 4.47; in data set [5], 6.66. The CC50 in data set [4] is ≥ 33.6 µM.

As to `CC(C)(C)c1ccc(C(Cl)c2ccnc(Nc3ccc(C#N)cc3)n2)cc1` (stereo not given), the selectivity ratio in data set [1] (MT4 cells) turned out to be 193. In addition, the negative-log EC50 (pEC50) in data set [2] is < 4.48; in data set [3] it was < 4.48; in data set [5], 6.77. For the same molecule, the half-maximal cytotoxic concentration (CC50) in data set [4] amounted to 32.9 µM.

In the case of `N#Cc1ccc(Nc2nccc(C(Cl)c3cccc(F)c3)n2)cc1` (stereo not given), in data set [1] (MT4 cells), the selectivity ratio worked out at 27. In addition, the results for the pEC50 in data set [2], in data set [3] and in data set [5] were < 4.43, < 4.43 and 5.87, respectively. Also, the midpoint of cytotoxicity in data set [4], the CC50, lay at 36.8 µM.

For `N#Cc1ccc(Nc2nccc(C(Cl)c3cccc(Cl)c3)n2)cc1` (stereo not given), the selectivity ratio in data set [1] (MT4 cells) came to 5160. In addition, the pEC50 in data set [2] was < 4.61; in data set [3] it was < 4.61; in data set [5] it was 8.30. Also, in data set [4], the CC50 stood at 24.3 µM.

As to `N#Cc1ccc(Nc2nccc(C(Cl)c3cccc(Br)c3)n2)cc1` (stereo not given), in data set [1] (MT4 cells), the selectivity ratio was 3110. The figures for the pEC50 in data set [2], in data set [3] and in data set [5] were 5.09, < 4.52 and 8.05, respectively. This molecule also showed a CC50 in data set [4] of 30.4 µM.

For the molecule `N#Cc1ccc(Nc2nccc(C(Cl)c3ccc(F)cc3)n2)cc1` (stereo not given), the selectivity ratio in data set [1] (MT4 cells) was 19. Further, the pEC50 was < 4.45 in data set [2], < 4.45 in data set [3] and 5.74 in data set [5]. The same molecule had a CC50 in data set [4] of 35.4 µM.

In the case of `N#Cc1ccc(Nc2nccc(C(Cl)c3ccc(Cl)cc3)n2)cc1` (stereo not given), the selectivity ratio in data set [1] (MT4 cells) worked out at 545. For the same molecule, the pEC50 is < 4.44 in data set [2], < 4.44 in data set [3] and 7.17 in data set [5]. In data set [4], the midpoint of cytotoxicity, the CC50, lay at 36.1 µM.

Consider `N#Cc1ccc(Nc2nccc(C(Cl)c3ccc(Br)cc3)n2)cc1` (stereo not given), for which the selectivity ratio in data set [1] (MT4 cells) came out at 875. The pEC50 is < 4.49 in data set [2], < 4.49 in data set [3] and 7.42 in data set [5]. In addition, the CC50 in data set [4] came out at 32.5 µM.

`N#Cc1ccc(Nc2nccc(C(Cl)c3cccc4ccccc34)n2)cc1` (stereo not given): the selectivity ratio in data set [1] (MT4 cells) was 56. For the same molecule, the pEC50 in data set [2] was < 4.95; in data set [3] it was < 4.95; in data set [5], 6.69. Moreover, the CC50 in data set [4] amounted to 11.3 µM.

For `Cc1cc(C(Cl)c2ccc(C(C)(C)C)cc2)nc(Nc2ccc(C#N)cc2)n1` (stereo not given), the selectivity ratio in data set [1] (MT4 cells) was found to be 173. Moreover, the values for the pEC50 in data set [2], in data set [3] and in data set [5] were < 4.52, < 4.52 and 6.76, respectively. In data set [4], the CC50 is 30.3 µM.

As for `Cc1cc(C(Cl)c2ccc(F)cc2)nc(Nc2ccc(C#N)cc2)n1` (stereo not given), the selectivity ratio in data set [1] (MT4 cells) was 5. For the same molecule, the negative-log EC50 (pEC50) in data set [2] is < 4.51; in data set [3], < 4.51; in data set [5], 5.23. Also, in data set [4], the midpoint of cytotoxicity, the CC50, lay at 31.1 µM.

With `Cc1cc(C(Cl)c2ccc(Br)cc2)nc(Nc2ccc(C#N)cc2)n1` (stereo not given), the selectivity ratio in data set [1] (MT4 cells) amounted to 75. Also, the negative logarithm of the EC50 (pEC50) was < 4.50 in data set [2], < 4.50 in data set [3] and 6.36 in data set [5]. The molecule further had a CC50 in data set [4] of 31.9 µM.

Take `Cc1cnc(Nc2ccc(C#N)cc2)nc1C(Cl)c1ccc(C(C)(C)C)cc1` (stereo not given): the selectivity ratio in data set [1] (MT4 cells) stood at 16. Also, the pEC50 in data set [2] is < 4.54; in data set [3], < 4.54; in data set [5], 5.75. Besides, the CC50 in data set [4] came to 28.7 µM.

As to `Cc1cnc(Nc2ccc(C#N)cc2)nc1C(Cl)c1ccc(F)cc1` (stereo not given), the selectivity ratio in data set [1] (MT4 cells) turned out to be 4. For the same molecule, the pEC50 was < 4.51 in data set [2], < 4.51 in data set [3] and 5.10 in data set [5]. For the same molecule, the 50% cytotoxic concentration (CC50) in data set [4] worked out at 30.8 µM.

With `Cc1cnc(Nc2ccc(C#N)cc2)nc1C(Cl)c1ccc(Br)cc1` (stereo not given), in data set [1] (MT4 cells), the selectivity ratio was 95. Further, the pEC50 was < 4.99 in data set [2], < 4.99 in data set [3] and 6.96 in data set [5]. Moreover, the CC50 in data set [4] amounted to 10.3 µM.

For the molecule `N#Cc1ccc(Nc2nccc(C(Br)c3ccccc3)n2)cc1` (stereo not given), the selectivity ratio in data set [1] (MT4 cells) was 348. For the same molecule, the pEC50 in data set [2] is < 4.16; in data set [3] it was < 4.16; in data set [5], 6.70. Besides, the CC50 in data set [4] is 69 µM.

Consider `Cc1ccc(C(Br)c2ccnc(Nc3ccc(C#N)cc3)n2)cc1` (stereo not given), for which the selectivity ratio in data set [1] (MT4 cells) amounted to 672. The pEC50 was < 4.50 in data set [2], < 4.50 in data set [3] and 7.33 in data set [5]. Also, half-maximal cytotoxicity in data set [4] (CC50) was put at 31.5 µM.

For the molecule `CC(C)Nc1cccnc1N1CCN(C(=O)c2cc3cc(NS(C)(=O)=O)ccc3[nH]2)CC1` [DELAVIRDINE], the selectivity ratio in data set [1] (MT4 cells) is > 511. The pEC50 in data set [2] is < 4.36; in data set [5] it was 7.07. The CC50 in data set [4] is > 43.8 µM.

Turning to `O=C1Nc2ccc(Cl)cc2[C@@](C#CC2CC2)(C(F)(F)F)O1` [EFAVIRENZ], the selectivity ratio in data set [1] (mt4) is > 1140. Moreover, the pEC50 in data set [2] is 6.57. Besides, the cytotoxic concentration (CC50) in data set [4] was > 6.3 µM.

With `Cc1cc(C#N)cc(C)c1Oc1nc(Nc2ccc(C#N)cc2)nc(N)c1Br` [ETRAVIRINE], the selectivity ratio in data set [1] (mt4) was determined as 7380. In addition, the pEC50 was 7.83 in data set [2] and < 4.85 in data set [3]. In data set [4], this molecule displayed a CC50 of 14.2 µM.

Regarding `Nc1ccn([C@@H]2CS[C@H](CO)O2)c(=O)n1` [LAMIVUDINE], in data set [1] (mt4), the selectivity ratio was > 36. In addition, the pEC50 in data set [3] is 5.14; in data set [5], 5.61. Further, the CC50 in data set [4] is > 87.2 µM.

For the molecule `Cc1ccnc2c1NC(=O)c1cccnc1N2C1CC1` [NEVIRAPINE], in data set [1] (MT4 cells), the selectivity ratio was > 163. The pEC50 in data set [2] is < 4.82.

Consider `Cc1cn([C@H]2C[C@H](N=[N+]=[N-])[C@@H](CO)O2)c(=O)[nH]c1=O` [ZIDOVUDINE], for which, in data set [1] (mt4), the selectivity ratio is > 17000. Besides, the negative logarithm of the EC50 (pEC50) is 8.15 in data set [2] and 8.30 in data set [3]. Besides, in data set [4], the CC50 is > 93.5 µM.
